Laboratory results: patent US10414745B2, “Phenol derivatives to treat cancer” (FUNDACIÓN MEDINA. CENTRO DE EXCELENCIA EN INVESTIGACIÓN DE …, priority 2015, dated 2019)
Where two headings read alike, the source gives them in different places.

Assays:
MiaPaca_2 cell line = experiment: CFSE assay (cell cycle inhibition, High content screening); assay type: cell-based; conditions: Homo sapiens, MIA PaCa-2; MiaPaca_2, 72 hours of treatment; read-out: ED50 CFSE assay
Description: To evaluate the potency of the MDN-0089, MDN-0090, MDN-0092 and MDN-0093, dye CFSE and High content screening (HCS) equipment were used. MiaPaca_2 cell line was used. Cells were seeded in 96 wells plates at 10.000 cells/well. Medium was removed and compounds and standards were added in fresh medium at different concentrations, (1 μL of compound/200 μL fresh medium). The DMSO concentration was 0.5% in all wells. After 72 hours of incubation (37° C., 5% CO2), plates were read in HCS equipment.

pERK1/2 = experiment: Western blot pERK1_2 (Ras/Raf/MEK/ERK pathway inhibition); assay type: cell-based; conditions: 24 hours of treatment, untreated 0.38
Source text: Western blot technique was used, using an Odissey Licor equipment to read the membranes. pERK1_2 antibody was used as first antibody and as second antibody we used anti-mouse antibodies. Then, the membranes were quantified using β-actin.

MiaPaca 2 cell line = experiment: ApoTox-Glo Triplex Assay (viability, citotoxicity, apoptosis); assay type: cell-based; conditions: Homo sapiens, MIA PaCa-2, MiaPaca_2, 72 hours of treatment
Description: The MiaPaca 2 cell line was used for further evaluation of the MDN-0089, MDN-0090, MDN-0092 and MDN-0093 activity. The ApoTox-Glo™ Triplex Assay was used to evaluate three parameters (viability, citotoxicity and apoptosis).
Viability: The live-cell protease activity is restricted to intact viable cells and is measured using a fluorogenic, cell-permeant, peptide substrate (glycylphenylalanyl-aminofluorocoumarin; GF-AFC). The substrate enters intact cells where it is cleaved by the live-cell protease activity to generate a fluorescent signal proportional to the number of living cells
Cytotoxicity: Fluorogenic cell-impermeant peptide substrate (bis-alanylalanyl-phenylalanyl-rhodamine 110; bis-AAF-R110) is used to measure dead-cell protease activity, which is released from cells that have lost membrane integrity. Because bis-AAF-R110 is not cell-permeant, essentially no signal from this substrate is generated by intact, viable cells
Apoptosis: The assay uses the Caspase-Glo® Assay Technology by providing a luminogenic caspase-3/7 substrate, which contains the tetrapeptide sequence DEVD, in a reagent optimized for caspase activity, luciferase activity and cell lysis.

HepG2 = experiment: Cytotoxicity on HepG2; assay type: cell-based; conditions: for activity effect on HepG2 (in words): 72 hours; for IC50: Homo sapiens, HepG2, 72 hours, read-out: IC50 Cytoxicity
MiaPaca_2 = experiment: MTT assay in MiaPaca_2 tumoral pancreatic cell line; assay type: cell-based; conditions: Homo sapiens, MIA PaCa-2; 72 hours of treatment; read-out: ED50 MiaPaca_2 (MTT assay)
Description: (§1) The activity of the compounds was detected using tumoral pancreatic cell lines (MiaPaca-2 and BxPC3). For this purpose MTT test was used. Cells were seeded at […], and treated with the compound during 72 hours.

BxPC3 = experiment: MTT assay in BxPC3 tumoral pancreatic cell line; assay type: cell-based; conditions: Homo sapiens, BXPC-3; 72 hours of treatment; read-out: ED50 BxPC3 (MTT assay)
Description: as §1

[1] = test system: Cancer Stem Cells MiaPaca_2; experiment: MTT assay, synergism with Gemcitabine, Cancer Stem Cells MiaPaca_2; assay type: cell-based; conditions: Homo sapiens, MIA PaCa-2; Cancer Stem Cells MiaPaca_2, Gemcitabine alone; read-out: IC50, dose-response curve of Gemcitabine
Description: In order to study if treatment with MDN-0090 could be used in synergism with the most common pancreatic chemotherapic drug (Gemcitabine), MTT assay was performed using tumor cell lines (MiaPaca_2 and BxPC3) and cancer stem cells (MiaPaca_2 and BxPC3). In this way different Gemcitabine concentrations (0.00025-5 μM) were used with MDN-0090 dose response curves (0.39-50 μM) and vice versa. With this assay, we observed that the activity of both compounds (Gemcitabine and MDN-0090) increased when were administered together. (Tables 14-19)

BxPC3 CSCs xenografts = experiment: Antitumor activity against CSCs induced tumors; assay type: in vivo; conditions: BxPC3 CSCs xenograft, NSG mice, 10 mg/kg or 20 mg/kg ip three times a week for 52 days
Description: We evaluated the effect of MDN-0090 on CSCs induced tumors. We isolated and characterized the pancreatic CSCs from BxPC3 cell line using the methodology described previously (WO 2016/020572).
In vivo experiment was performed in male and female NOD scid gamma mice (NSG, NOD.Cg-Prkdcscid II2rgtm1Wjl/SzJ). All animals (n=10 per group) were maintained in a microventilated cage system with a 12-h light/dark cycle, and were manipulated in a laminar air-flow cabinet to keep on the specific pathogen-free conditions.
For the induction of xenografts tumors, mice were anesthetized by inhalation of isofluorane, inoculated with 5×10^4 BxPC3 CSCs by subcutaneously injections into the flank regions. Tumors were grown to an average volume of 100 mm^3, after which they were randomly assigned as control groups (saline) and treatment A with MDN-0090 (10 mg/kg, dissolved in saline) and treatment B (20 mg/kg, dissolved in saline) ip three times a week for 52 days. Tumor growth was assessed twice weekly using a digital caliper and the tumor volume was calculated by the formula V=(length)^2×width×π/6.

p-ERK = experiment: AlphaScreen Surefire p-ERK kit assay; assay type: cell-based; conditions: 24 hours of treatment, read-out: Inflexion point (AlphaScreen)
Description: This effect was checked for MDN-0090 with a p-ERK kit (Perkin Elmer). Cells were seeded into 96 wells/plate at 75000 cells/well. 24 hours later the medium was removed and the compound was added with fresh medium. After 24 hours of treatment, cells were lysed. 15 μL of the lysate and 15 μL of reagents were added. After 2 hours of incubation, plate was read using an EnVision equipment to read AlphaScreen assay (AlphaScreen signal (Luminiscent/fluorescent). See table 11 and FIG. 2.

[2] = test system: MIAPaca-2 tumor cell line; experiment: In vivo tumorigenicity assay, MIAPaca-2; conditions: MIAPaca-2 cells treated with MDN-0090 at IC50 for 24 hours before inoculation into NSG mice
Description: (§2) To evaluate the effect of MDN-0090 on the tumorigenicity ability of CSC-like cells heterotopic xenografts using both BxPC3 and MIAPaca-2 tumor cell lines were established. Firstly, we treated cells with MDN-0090 at IC50 for 24 hours and after that cells were inoculated into the animals. Pancreatic cancer non-treated cells were used as control.
(§3) Tumor formation was induced by subcutaneous injection of 1.5×10^4 in vitro treated or non-treated cells/mouse in NOD scid mice gamma (NOD.Cg-Prkdcscid II2rgtm1Wjl/SzJ, NSG). Animals (n=20, 10 per group) were housed and maintained at 20° C. to 24° C., 50% humidity a light-dark cycle of 14 to 10 h with food and water ad libitum. We observed the tumor growth every two days. Tumor growth was assessed using a digital caliper and the tumor volume was calculated by the formula V=(length)^2×width×π/6.

BxPC3 tumor cell line = experiment: In vivo tumorigenicity assay, BxPC3; conditions: BxPC3 cells treated with MDN-0090 at IC50 for 24 hours before inoculation into NSG mice
Description: as §2, §3

CSCs MiaPaca_2 = experiment: MTT test on pancreatic Cancer Stem Cells MiaPaca_2; assay type: cell-based; conditions: Homo sapiens, MIA PaCa-2, read-out: ED50 CSCs MiaPaca_2
Source text: (§4) Two established cell lines derived from two different pancreatic adenocarcinomas: BxPC3 (reference ATCC® CRL-1687), mutated for CDKN2A, MAP2K4, SMAD4 and TP53; and MIA-PaCa-2 (reference ATCC® CRL-1420), mutated for k-RAS were used. These cells lines were maintained with Dulbecco's-Modified Eagle's Medium (DMEM) (Sigma-Aldrich, St. Louis, Mo., USA) supplemented with 10% fetal bovine serum (FBS) (Gibco, Carlsbad, Calif., USA) and 1% penicillin/streptomycin (P/S) (Sigma-Aldrich) in a 75 cm^2 culture flask (B D Falcon, Franklin Lakes, N.J.) unless otherwise indicated. All cells were grown at 37° C. with 5% CO2 in a humidified incubator (Steri-Cult CO2 Incubator, Thermo Electron Corporation, Waltham, Mass., USA). Media were changed every 48-72 hours and cultured cells with a maximum of 80% confluence were passed.
(§5) For the isolation of CSCs subpopulation we used the methodology described in WO 2016/020572.
(§6) The activity of the MDN-0090 was detected using pancreatic Cancer Stem Cell lines (MiaPaca-2 and BxPC3). For this purpose MTT test was used.

CSCs BxPC3 = experiment: MTT test on pancreatic Cancer Stem Cells BxPC3; assay type: cell-based; conditions: Homo sapiens, BXPC-3, read-out: ED50 CSCs BxPC3
Source text: as §4, §5, §6

[3] = test system: BxPC3 tumor cell line xenografts; experiment: Antitumor activity in heterotopic xenografts, BxPC3; assay type: in vivo; conditions: BxPC3 xenograft, NSG mice, 20 mg/kg ip three times a week for 50 days
Description: (§7) To evaluate the effect of MDN-0090 on tumor growth heterotopic xenografts were used for both BxPC3 and MIAPaca-2 tumor cell lines. Tumor formation was induced by subcutaneous injection of 5×10^6 cells/mouse in female NOD scid mice gamma (NOD.Cg-Prkdcscid II2rgtm1Wjl/SzJ, NSG) of eight weeks old. Animals (n=40, 10 per group) were housed and maintained at 20° C. to 24° C., 50% humidity a light-dark cycle of 14 to 10 h with food and water ad libitum. Tumors were grown to an average volume of 100 mm^3, after which they were randomly assigned as control groups (saline) and treated with MDN-0090 (20 mg/kg, dissolved in saline) injected ip three times a week for 50 days. Tumor growth was assessed twice weekly using a digital caliper and the tumor volume was calculated by the formula V=(length)^2×width×π/6.

[4] = test system: MIAPaca-2 tumor cell line xenografts; experiment: Antitumor activity in heterotopic xenografts, MIAPaca-2; assay type: in vivo; conditions: MIAPaca-2 xenograft, NSG mice, 20 mg/kg ip three times a week for 50 days
Description: as §7

[5] = read-out: ED50 Apoptosis (Caspase3_7)

Row | SMILES | EC50 (MiaPaca_2 cell line) | pERK1_2 (Fluorescence pERK1/2/fluorescence β-actine) (pERK1/2) | EC50 (MiaPaca 2 cell line; [5]) | EC50 (MiaPaca 2 cell line; read-out: ED50 Citotoxicity) | EC50 (MiaPaca 2 cell line; read-out: ED50 Viability) | activity effect on HepG2 (in words) (HepG2) | IC50 (HepG2) | EC50 (MiaPaca_2) | EC50 (BxPC3) | also measured
1 | COc1cc(O)c(C=O)c(C(=O)c2c(O)cc(C)cc2O)c1CC=C(C)C [MDN-0092] | 22.9 µM | 0.29 | > 50 µM | > 50 µM | > 50 µM | medium activity effect | 20.4 µM | 7.18 µM | 9.14 µM | –
2 | Nc1ccn([C@@H]2O[C@H](CO)[C@@H](O)C2(F)F)c(=O)n1 [Gemcitabine] | – | – | – | – | – | – | – | – | – | IC50 [1]: 1.9 µM
3 | COc1cc(O)c2oc3cc(C)cc(O)c3c(=O)c2c1CC=C(C)C [MDN-0094] | – | – | – | – | – | – | – | > 50 µM | > 50 µM | –
4 | Cc1cc(O)c(C(=O)c2c(C=O)c(O)cc3c2C=CC(C)(C)O3)c(O)c1 [MDN-0091] | – | – | – | – | – | – | – | > 50 µM | > 50 µM | –
5 | Cc1cc(O)c(C(=O)c2c(C=O)c(O)cc3c2C(=O)CC(C)(C)O3)c(O)c1 [MDN-0089] | 3.33 µM | 0.22 | 29.7 µM | > 50 µM | > 50 µM | medium activity effect | 13.6 µM | 20.3 µM | 7.63 µM | –
6 | CC(C)=CCc1c(O)cc(O)c(C=O)c1C(=O)c1c(O)cc(C)cc1O [MDN-0090, 2,3′,5′,6-tetrahydroxy-2′-formyl-6′-(3-methyl-2-butenyl)-4-methyl-benzophenone] | 5.27 µM | 0.18 | 24.9 µM | > 50 µM | 17.3 µM | medium activity effect | 19.7 µM | 8.84 µM | 4.67 µM | tumor size (tumor volume) (BxPC3 CSCs xenografts): decreased the size tumor; IC50 (p-ERK; 24 h): 9.02 µM; IC50 (p-ERK): 6.12 µM; tumor formation [2]: reduces tumor formation; tumor formation (BxPC3 tumor cell line): reduces tumor formation; EC50 (CSCs MiaPaca_2; 12 hours): 20.8 µM; EC50 (CSCs MiaPaca_2; 24 hours): 14 µM; EC50 (CSCs MiaPaca_2; 48 hours): 19.6 µM; EC50 (CSCs MiaPaca_2; 72 hours): 2.18 µM; EC50 (CSCs BxPC3; 12 hours): 14.3 µM; EC50 (CSCs BxPC3; 24 hours): 17 µM; EC50 (CSCs BxPC3; 48 hours): 14 µM; EC50 (CSCs BxPC3; 72 hours): 10.3 µM; tumor size (tumor volume) [3]: reduces the size of tumors; tumor size (tumor volume) [4]: reduces the size of tumors
7 | COc1cc(O)c(C=O)c(C(=O)c2c(O)cc(C)c(Cl)c2O)c1CC=C(C)C [MDN-0093] | < 3.15 µM | 0.12 | 18.4 µM | > 50 µM | 14.5 µM | high activity effect | 8.9 µM | 6.47 µM | 8.7 µM | –
